Where a name gives a salt, the structure may show the parent alone.
Tests used:
[1] = tested on: calcium antagonistic effect; test: Calcium antagonistic effect (pA2)
[2] = in vivo; details: mouse, iv
[3] = tested on: disorders of cardiac rhythm provoked by aconitine in rats; assay type: in vivo; details: ED50 rat i.v. / LD50 mouse i.v.
Method: When examining the antiarrhythmic effects, rats were pre-treated intravenously with 1 mg/kg of aconitine to provoke disorders of cardiac rhythm [Med. Exp. (Basel) 10, 93 (1964)], thereafter the test compound was administered intravenously, and the dose required to restore the rhythm in 50% (ED50 mg/kg) was determined.

Compound	calcium antagonistic effect (pA2) [1]	LD50 [2]	Therap. index (ED50/LD50) [3]
COc1ccc(CCN(C)CCCC(C#N)(c2ccc(OC)c(OC)c2)C(C)C)cc1OC (racemic) [Verapramil, reference compound]	4.58-4.7		
CCOc1ccc(C(=O)OC2C3CN(C)CC2CN(C)C3)cc1OC (stereo not shown) [3,7-Dimethyl-9-(3'-methoxy-4'-ethoxy-benzoyloxy)-3,7-diazabicyclo[3.3.1]nonane]		13.5 mg/kg	0.074
CN1CC2CN(C)CC(C1)C2Oc1ccc(Cl)cc1.O=C(O)/C=C/C(=O)O (stereo not shown) [3,7-Dimethyl-9-(4'-chlorophenoxy)-3,7-diazabicyclo[3.3.1]nonane fumarate]		52 mg/kg	0.017
CN1CC2CN(C)CC(C1)C2OC(c1ccccc1)c1ccccc1.O=C(O)/C=C/C(=O)O (stereo not shown) [3,7-Dimethyl-9-benzhydryloxy-3,7-diazabicyclo[3.3.1]nonane fumarate]		21 mg/kg	0.057
CN1CC2CN(C)CC(C1)C2OC(=O)c1ccccc1 (stereo not shown) [3,7-Dimethyl-9-benzoyloxy-3,7-diazabicyclo[3.3.1]nonane]		9 mg/kg	0.009
CCCCN1CC2CN(CCCC)CC(C1)C2OC(=O)c1ccc(Cl)cc1 (stereo not shown) [3,7-di-n-butyl-9-(4'-chlorobenzoyloxy)-3,7-diazabicyclo[3.3.1]nonane]		5 mg/kg	0.050
CCN1CC2CN(CC)CC(C1)C2OC(=O)c1ccc(Cl)cc1.Cl.Cl.O (stereo not shown) [3,7-diethyl-9-(4'-chloro-benzoyloxy)-3,7-diazabicyclo[3.3.1]nonane dihydrochloride monohydrate]		11 mg/kg	0.036
CN1CC2CN(C)CC(C1)C2OC(=O)c1ccc2ccccc2c1 (stereo not shown) [3,7-dimethyl-9-(2'-naphthoyloxy)-3,7-diazabicyclo[3.3.1]nonane]		17 mg/kg	0.006
CN1CC2CN(C)CC(C1)C2OC(=O)C1c2ccccc2Oc2ccccc21 (stereo not shown) [3,7-dimethyl-9-(xanthene-9'-carbonyloxy)-3,7-diazabicyclo[3.3.1]nonane]		14 mg/kg	0.019
CN1CC2CN(C)CC(C1)C2Oc1ccccc1.O=C(O)/C=C/C(=O)O (stereo not shown) [3,7-dimethyl-9-phenoxy-3,7-diazabicyclo[3.3.1]nonane fumarate]		39 mg/kg	0.029
CCN1CC2CN(C)CC(C1)C2OC(=O)c1ccc(Cl)cc1Cl (stereo not drawn) [3-Methyl-7-ethyl-9α-(2',4'-dichloro-benzoyloxy)-3,7-diazabicyclo[3.3.1]nonane dihydrochloride]		20 mg/kg	0.055
CCN1CC2CN(C)CC(C1)C2Oc1ccccc1Cl (stereo not drawn) [3-Methyl-7-ethyl-9α-(2'-chlorophenoxy)-3,7-diazabicyclo[3.3.1]nonanedihydrochloride]		28 mg/kg	0.041
CCN1CC2CN(C)CC(C1)C2OC(=O)c1ccc(Cl)cc1 (stereo not drawn) [3-Methyl-7-ethyl-9α-(4'-chloro-benzoyloxy)-3,7-diazabicyclo[3.3.1]nonane dihydrochloride]	4.33-4.6		
CCN1CC2CN(C)CC(C1)C2Oc1ccc(Cl)cc1 (stereo not drawn) [3-Methyl-7-ethyl-9α-(4'-chlorophenoxy)-3,7-diazabicyclo[3.3.1]nonanedihydrochloride]		41 mg/kg	0.030
CCN1CC2CN(C)CC(C1)C2OC(=O)c1ccc(-c2ccccc2)cc1 (stereo not drawn) [3-Methyl-7-ethyl-9α-(4'-phenyl-benzoyloxy)-3,7-diazabicyclo[3.3.1]nonane]		19.5 mg/kg	0.061
